# According to US10167266B2, “Sodium channel blockers” (Parion Sciences, Inc., priority 2002, dated 2019):
# Counter-ions that a name gives are not always drawn.
# Tested on: sodium channel (ENaC), canine bronchial epithelia
# Assay: Sodium channel blocking activity: inhibition of short circuit current (ISC) in airway epithelial monolayers in Ussing chambers
# Format: cell-based
# Conditions: for Fold Enhancement Over Amiloride / Fold Amiloride*: potency in canine bronchial epithelia relative to amiloride
# Protocol: One assay used to assess mechanism of action and/or potency of the compounds of the present invention involves the determination of lumenal drug inhibition of airway epithelial sodium currents measured under short circuit current (ISC) using airway epithelial monolayers mounted in Ussing chambers. Cells obtained from freshly excised human, dog, sheep or rodent airways are seeded onto porous 0.4 micron Snapwell™ Inserts (CoStar), cultured at air-liquid interface (ALI) conditions in hormonally defined media, and assayed for sodium transport activity (ISC) while bathed in Krebs Bicarbonate Ringer (KBR) in Using chambers. All test drug additions are to the lumenal bath with half-log dose addition protocols (from 1×10^−11 M to 3×10^−5 M), and the cumulative change in ISC (inhibition) recorded. All drugs are prepared in dimethyl sulfoxide as stock solutions at a concentration of 1×10^−2 M and stored at −20° C. Eight preparations are typically run in parallel; two preparations per run incorporate amiloride and/or benzamil as positive controls. After the maximal concentration (5×10^−5 M) is administered, the lumenal bath is exchanged three times with fresh drug-free KBR solution, and the resultant ISC measured after each wash for approximately 5 minutes in duration. Reversibility is defined as the percent return to the baseline value for sodium current after the third wash. All data from the voltage clamps are collected via a computer interface and analyzed off-line.
# Dose-effect relationships for all compounds are considered and analyzed by the Prism 3.0 program. IC50 values, maximal effective concentrations, and reversibility are calculated and compared to amiloride and benzamil as positive controls.
# Amiloride was also tested in this assay as a positive control. The results for the compounds of the present invention are reported as fold-enhancement values relative to amiloride.
smiles,measurement,setting,value
"N=C(NCCc1ccc(N)cc1)NC(=O)c1nc(Cl)c(N)nc1N [drawing 47: n=2, 4, NH2, 4-(4-Aminophenyl)ethylamidino-3,5-diamino-6-chloropyrazinecarboxamide hydrochloride]",Fold Enhancement Over Amiloride,Example 28,12.7 fold
"CC1(C)OCC(COc2ccc(CCCCNC(=N)NC(=O)c3nc(Cl)c(N)nc3N)cc2)O1 (centres unmarked) [drawing 48: R=H3CxCH3*, 4-[4-(2,2 Dimethyl-[1,3]dioxolan-4 yl)methyloxyphenyl]butylamidino-3,5-diamino-6-chloropyrazinecarboxamide]",Fold Enhancement Over Amiloride,Example 29,91 fold
"Cl.N=C(NCCCCc1ccc(OCC(O)CO)cc1)NC(=O)c1nc(Cl)c(N)nc1N (centres unmarked) [drawing 48: R=H, 4-[4(2,3-Dihydroxypropyloxyl)phenyl]butylamidino-3,5-diamino-6-chloropyrazinecarboxamide hydrochloride]",Fold Enhancement Over Amiloride,Example 29,124 fold
same,Fold Amiloride*,Example 47,51.95 (50) fold
same,Fold Amiloride*,Example 48,51.95 (79) fold
same,Fold Amiloride*,Example 50,51.55 (79) fold
"CC(=O)OCC(COc1ccc(CCCCNC(=N)NC(=O)c2nc(Cl)c(N)nc2N)cc1)OC(C)=O (centres unmarked) [drawing 48: R=drawing 49, 4-[4-(2,3-Diacetoxypropyloxy)phenyl]butylamidino-3,5-diamino-6-chloropyrazinecarboxamide]",Fold Enhancement Over Amiloride,Example 29,36 fold
"COCCOc1ccc(CCCCNC(=N)NC(=O)c2nc(Cl)c(N)nc2N)cc1.Cl [drawing 50: n=1, 4-[4-(1,4-Dioxapent-1-yl)phenyl]butylamidino-3,5-diamino-6-chloropyrazinecarboxamide hydrochloride]",Fold Enhancement Over Amiloride,Example 30,87 fold
same,Fold Amiloride*,Example 48,51.5 ± 14.9 (2) fold
"COCCOCCOc1ccc(CCCCNC(=N)NC(=O)c2nc(Cl)c(N)nc2N)cc1 [drawing 50: n=2, 4-[4-(1,4,7-Trioxaoct-1-yl)phenyl]-butyl amidino-3,5-diamino-6-chloropyrazinecarboxamide hydrochloride]",Fold Enhancement Over Amiloride,Example 30,42 fold
same,Fold Amiloride*,Example 48,76.1 (1) fold
"COCCOCCOCCOCCOc1ccc(CCCCNC(=N)NC(=O)c2nc(Cl)c(N)nc2N)cc1.Cl [drawing 50: n=4, 4-[4-(1,4,7,10,13-pentoxatetradec-1-yl)phenyl]-butylamidino-3,5-diamino-6-chloropyrazinecarboxamide hydrochloride]",Fold Enhancement Over Amiloride,Example 30,28.7 fold
"COC(=O)C1OC(Oc2ccc(CCCCNC(N)=NC(=O)c3nc(Cl)c(N)nc3N)cc2)C(OC(C)=O)C(OC(C)=O)C1OC(C)=O (centres unmarked) [drawing 51: R^5=40, 4-[4-(Methyl-2,3,4-tri-O-acetyl-glucopyranonuronate-1-O-yl)phenyl]butylamidino-3,5-diamino-6-chloropyrazinecarboxamide]",Fold Enhancement Over Amiloride,Example 31,65 fold
"Cl.N=C(NCCCCc1ccc(CO)cc1)NC(=O)c1nc(Cl)c(N)nc1N [drawing 51: R^5=—CH2OH, 4-(4-Hydroxymethylphenyl)butylamidino-3,5-diamino-6-chloropyrazinecarboxamide hydrochloride]",Fold potency relative to amiloride,Example 51,50.9 ± 19.8 (3)
same,Fold Enhancement Over Amiloride,Example 31,57 fold
same,Fold Amiloride*,Example 41,50.9 ± 19.8 (3) fold
same,Fold Amiloride*,Example 44,50.9 ± 19.8 (3) fold
"COC(=O)c1ccc(CCCCNC(=N)NC(=O)c2nc(Cl)c(N)nc2N)cc1 [drawing 51: R^5=—CO2CH3, 4-(4-Carboxymethylphenyl)butylamidino-3,5-diamino-6-chloropyrazinecarboxamide hydrochloride]",Fold Enhancement Over Amiloride,Example 31,26.5 fold
"NC(=NC(=O)c1nc(Cl)c(N)nc1N)NCCCCc1ccc(OC2OC(C(=O)O)C(O)C(O)C2O)cc1 (centres unmarked) [drawing 51: R^5=—O-Glucuronide Na^+ Salt, 4-[4-(5-Carboxy-glucopyranonuronate-1-O-yl)-phenyl]butylamidino-3,5-diamino-6-chloropyrazinecarboxamide]",Fold Enhancement Over Amiloride,Example 31,11.2 fold
"NC(=NC(=O)c1nc(Cl)c(N)nc1N)NCCCCc1ccc(OS(=O)(=O)O)cc1 [drawing 51: R^5=—O—SO3H, 4-(4-Sulfatephenyl)butylamidino-3,5-diamino-6-chloropyrazinecarboxamide]",Fold Enhancement Over Amiloride,Example 31,27.7 fold
